Assay results reported in ChEMBL document CHEMBL1155913, “Novel anticancer agents, kayeassamins A and B from the flower of Kayea assamica of Myanmar” (2008).
Activity calls are given as the source filed them. The calls are words filed in the database; no cut-off is given here.

Key:
PANC-1 [1] = assay: Cytotoxicity against human PANC1 cells under nutrient-deprived medium after 24 hrs by serial dilution method; format: functional
PANC-1 [2] = assay: Inhibition of human PANC1 cells migration to pipette tip-induced wounds under nutrient-rich medium at 1 uM after 72 hrs by phase-contrast microscopy; format: functional, cell-based
PANC-1 [3] = assay: Induction of apoptosis in human PANC1 cells under nutrient-deprived medium assessed as morphological changes at 1 uM after 24 hrs by phase-contrast microscopy; format: functional, cell-based
PANC-1 [4] = assay: Selectivity index, ratio of PC100 for human PANC1 cells under nutrient-rich to nutrient-deprived medium; format: functional

| SMILES | Cytotoxicity (PANC-1 [1]) [µM] | Activity (PANC-1 [2]) | Activity (PANC-1 [3]) | Ratio (PANC-1 [4]) |
| --- | --- | --- | --- | --- |
| COc1cc(C[C@H]2C(=O)OC[C@@H]2Cc2ccc(OC)c(OC)c2)ccc1O [ARCTIGENIN] | 1 |  |  |  |
| CCCC(=O)c1c(O)c(C/C=C(\C)CCC=C(C)C)c(O)c2c([C@@H](O)CC)cc(=O)oc12 [KAYEASSAMIN A] | 1 | inactive | Active | 256 |
| CCCC(=O)c1c(O)c(C/C=C(\C)CCC=C(C)C)c2oc(=O)cc([C@@H](O)CC)c2c1O [KAYEASSAMIN B] | 1 | inactive | Active | 256 |
